Data as given in patent EP0618807B1, “A STABILIZED PHARMACEUTICAL FORMULATION COMPRISING GROWTH HORMONE AND HISTIDINE” (NOVO NORDISK A/S, priority 1991, dated 1993).

Experiments:
[1] = Stability statements of the general description (deamidation, stability in solution); type: physicochemical; details: addition of the solvent to the hGH preparation
[2] = Example 2: deamidation at 25°C with histidine or histidine derivatives, desamido content by IE-HPLC; type: physicochemical; details: compared to phosphate at pH 6.5
Protocol: The rate of deamidation was examined at 25°C for hGH preparations comprising 6 IU hGH at pH 6.5 and at pH 7.3 in 5 mM, 10 mM and 100mM His buffer as compared to 8 mM phosphate buffer at the same pH. Furthermore, the histidine derivatives His-Gly, His-Ala, His-Leu, His-Lys, His-Phe, His-Ser, Histidine methyl ester, histidinol, imidazole, imidazole-4-acetic acid and histamine were tested.
The hGH preparations were prepared by dissolving 20 mg hGH in 10 ml of histidine buffer of the desired strength prepared by dissolving 7.8 mg, 15.5 mg and 155.2 mg, respectively, of histidine in 10 ml deionized water containing 0.9% (v/v) of benzyl alcohol and adding 0.1 N hydrochloric acid to achieve the stated pH.
The hGH formulations stated in Table 2 below were stored at 25°C and analyzed for their desamido content after 14 and 30 days by IE-HPLC.

SMILES	reduction in the deamidation [1]	effect on de-amidation / stabilization (in words) [2]
CO [5% methanol, methanol]	more than 20%	–
CCO [10% ethanol, ethanol]	more than 20%	–
OCc1ccccc1 [benzyl alcohol]	–	no influence
Cc1cccc(O)c1 [m-cresol]	–	no influence
